Source: the supplement of paper PMC11208160

assay: recombinant UMI read abundance after kanamycin selection (control-corrected) (log10(CPM+1)); higher = more efficient recombination; extreme values may be limits of the assay; sequences stand for … in AGTGCAGAGAAAATCGGCCAGTTTTCTCTGCCTGCAGTCCGCATGCCGTGGGACCCCTTGGGTTCTAACCTGTTGCCTAGATTTATGCAGCGGACTGCCTTTCTCCCAAAGTGATAAACCGG…AGGTTGGTTTCACT; site = the 11-nt donor
Procedure, shortened: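 The measure is log10(CPM+1) for recombinant UMIs. These were PCR-amplified across the donor–target junction and sequenced after Escherichia coli carrying a donor and donor-binding-loop pair library and a target plasmid with T7-inducible IS621 bridge recombinase was plated on IPTG (0.07 mM) plus kanamycin or unselected. CPM were averaged over two replicates and scaled by control-derived factors.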
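Note: IS621 bridge recombinase in Escherichia coli cells against a fixed T5 target plasmid.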

Row | Sequence | recombinant UMI read abundance (log10)
1 | GCATACCCATGGACCGGTTTTCCCGGTAATCCGTATTTGAC (site GCATACCCTGT) | 1.04
2 | CCTAAAGCATGGACCGGTTTTCCCGGTAATCCGTATTTGAT (site CCTAAATCTAT) | 0
3 | AGAATGCCATGGACCGGTTTTCCCGGTAATCCGTATTTGAC (site AGAATGCCTGT) | 0
4 | ACATCTGCATGGACCGGTTTTCCCGGTAATCCGTATTTGTG (site ACATCTCCTCA) | 0.0207
5 | TATTCAACATGGACCGGTTTTCCCGGTAATCCGTATTTGCC (site TATTCAACTGG) | 0.527
6 | CGATCATCATGGACCGGTTTTCCCGGTAATCCGTATTTGGT (site CGATCATCTAG) | 0.495
7 | CTGAATCCATGGACCGGTTTTCCCGGTAATCCGTATTTGGT (site CTGAATCCTAC) | 0.615
8 | GTAGTTACATGGACCGGTTTTCCCGGTAATCCGTATTTGAC (site GTAGTTACTGT) | 2.74
9 | CTATTACCATGGACCGGTTTTCCCGGTAATCCGTATTTGAC (site CTATTACCTGT) | 0
10 | ATCTCTACATGGACCGGTTTTCCCGGTAATCCGTATTTGAC (site ATCTATACTGT) | 0.264
11 | CGTGGAACATGGACCGGTTTTCCCGGTAATCCGTATTTGTG (site CGTGGAACTCA) | 1.16
12 | CCCTGGCCATGGACCGGTTTTCCCGGTAATCCGTATTTGCC (site CCCTTGCCTGG) | 0
13 | CTAGTATCATGGACCGGTTTTCCCGGTAATCCGTATTTGAC (site ATAGTATCTGG) | 0.298
14 | GCTTTAACATGGACCGGTTTTCCCGGTAATCCGTATTTGCT (site GCTTTAACTAG) | 0.0522
15 | GGAGTGGCATGGACCGGTTTTCCCGGTAATCCGTATTTGGT (site GGAGTGGCTAT) | 0.592
16 | CGGGTTCCATGGACCGGTTTTCCCGGTAATCCGTATTTGTT (site CGGGTTCCTAA) | 0.776

Row | Sequence | recombinant UMI read abundance (log10)
17 | GTATGTACATGGACCGGTTTTCCCGGTAATCCGTATTTGAC (site GTACGTACTGT) | 2.5
18 | CACGGCGCATGGACCGGTTTTCCCGGTAATCCGTATTTGTT (site CACGGCCCTAA) | 0.445
19 | GCAGAAACATGGACCGGTTTTCCCGGTAATCCGTATTTGGC (site GCAGAAACTGC) | 2.87
20 | ACTACAGCATGGACCGGTTTTCCCGGTAATCCGTATTTGAC (site ACTACAGCTGT) | 2.36
21 | CGCTGAGCATGGACCGGTTTTCCCGGTAATCCGTATTTGGT (site CGCTGAGCTAC) | 1.31
22 | CACTTCTCATGGACCGGTTTTCCCGGTAATCCGTATTTGCC (site CACTACTCTGG) | 1.09
23 | GGCCTTTCATGGACCGGTTTTCCCGGTAATCCGTATTTGAC (site CGCCTTTCTGT) | 0
24 | GGCAATCCATGGACCGGTTTTCCCGGTAATCCGTATTTGAC (site GGCAATCCTTT) | 0
25 | CCTCATACATGGACCGGTTTTCCCGGTAATCCGTATTTGGC (site CCTTATACTGC) | 0
26 | CGAGGAGCATGGACCGGTTTTCCCGGTAATCCGTATTTGGA (site CGAGGAGCTTC) | 1.57
27 | CAAGCGTCATGGACCGGTTTTCCCGGTAATCCGTATTTGTG (site CAAGCGACTCA) | 0.101
28 | TTAATTTCATGGACCGGTTTTCCCGGTAATCCGTATTTGAA (site TTAATTTCTTT) | 0
29 | CTAGTATCATGGACCGGTTTTCCCGGTAATCCGTATTTGAC (site CTAGTAACTGA) | 0
30 | CTAGTATCATGGACCGGTTTTCCCGGTAATCCGTATTTGAC (site CTAGTATCTCT) | 1.67
31 | GGAGTCGCATGGACCGGTTTTCCCGGTAATCCGTATTTGGT (site GGAGTCGCTAC) | 0.854
32 | GATTGGACATGGACCGGTTTTCCCGGTAATCCGTATTTGTC (site GATTGGACTGG) | 0.913
